The results in this text go back to patent US20250090174A1, “LEFT ATRIAL APPENDAGE CLOSURE DEVICE WITH DRUG-ELUTING COMPOSITION” (BOSTON SCIENTIFIC SCIMED, INC., priority 2023, published 2025).

The test system of this assay is heparinized bovine blood. The assay can be described thus: In-vitro clot weight on drug coated PET fabric disks in heparinized bovine blood. As to conditions: PVDF-HFP/drug 90/10 dip coated PET disks, 37° C., ACT about 190, FIG. 18. How it is done:
A solution of PVDF-HFP and DOAC (direct oral anticoagulant) was prepared in 80/20 acetone/DMSO (wt/wt). The PVDF-HFP drug ratio was 90/10 (wt/wt) and the solution solids was 0.7%. […] diameter WM PET fabric disks were dip coated into the polymer/drug solution at a dip speed of […]. The coated disks were dried for […] at 125° C. in a convection oven. The drug coated disks and PVDF-HFP only control disks were placed in cups containing heparinized bovine blood adjusted to an ACT of about 190 using protamine. The cups were placed on an orbital shaker incubator at 37° C. and disks were removed at various time points and imaged. The disks were then dried and weighed to determine clot wt.

As for `COc1ccc(-n2nc(C(N)=O)c3c2C(=O)N(c2ccc(N4CCCCC4=O)cc2)CC3)cc1` [Apixaban], the “thrombus (clot weight) compared to the PVDF-HFP coated control” value is listed as “significantly less thrombus”.

As to `O=C(NC[C@H]1CN(c2ccc(N3CCOCC3=O)cc2)C(=O)O1)c1ccc(Cl)s1` [Rivaroxaban, 5-Chloro-N-({(5S)-2-oxo-3-[4-(3-oxo-4-morpholinyl)phenyl]-1,3-oxazolidin-5-yl}methyl)-2-thiophenecarboxamide], the “thrombus (clot weight) compared to the PVDF-HFP coated control” value is reported as “significantly less thrombus”.
